Results on 6 compounds are retold here after paper PMC10353187, “Discovery of a new potent oxindole multi-kinase inhibitor among a series of designed 3-alkenyl-oxindoles with ancillary carbonic anhydrase inhibitory activity as antiproliferative agents” (BMC Chemistry, 2023).

Holding throughout (assay): NCI-60 single-dose antiproliferative assay (SRB)
Common to all, as to type: cell-based

The subject of one assay is HS 578T. To be noted: Homo sapiens, 10 μM single dose, Breast cancer, read-out: Cell Growth inhibition Percent. In short, it runs like this: (§1)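 Cells grown in RPMI 1640 with 5% FBS and 2 mM L-glutamine were plated, left 24 h at 37 °C, then exposed to compound at a single 10 µM final concentration for 48 h. Adherent cells were TCA-fixed, SRB-stained and read at 515 nm; growth was expressed relative to time-zero and untreated controls.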

For the next assay, the system named is TK-10. To be noted: Homo sapiens; 10 μM single dose; TK-10, Renal cancer; read-out: Cell Growth inhibition Percent. An outline of the steps:
as §1

The next assay relates to NCI-H322M. To be noted: Homo sapiens, 10 μM single dose, Non-small cell lung cancer, read-out: Cell Growth inhibition Percent. An outline of the steps:
as §1

The test system of the next assay is SNB-19. To be noted: Homo sapiens; 10 μM single dose; SNB-19, CNS cancer; read-out: Cell Growth inhibition Percent. An outline of the steps:
as §1

The subject of another assay is DU-145. To be noted: Homo sapiens; 10 μM single dose; DU-145, Prostate cancer; read-out: Cell Growth inhibition Percent. An outline of the steps: as §1
For the next assay, the system named is CCRF-CEM. To be noted: Homo sapiens, 10 μM single dose, Leukemia, read-out: Cell Growth inhibition Percent. An outline of the steps:
as §1

For another assay, the system named is OVCAR-3. To be noted: Homo sapiens; 10 μM single dose; OVCAR-3, Ovarian Cancer; read-out: Cell Growth inhibition Percent. In short, it runs like this: as §1
For the next assay, the system named is HCC-2998. To be noted: Homo sapiens; 10 μM single dose; HCC-2998, Colon cancer; read-out: Cell Growth inhibition Percent. In short, it runs like this:
as §1

In a further assay the test system is HL-60(TB). To be noted: Homo sapiens, 10 μM single dose, Leukemia, read-out: Cell Growth inhibition Percent.
Another assay has as its system NCI/ADR-RES. To be noted: Homo sapiens, 10 μM single dose, Ovarian Cancer, read-out: Cell Growth inhibition Percent. In short, it runs like this: as §1
A further assay deals with SK-MEL-28. To be noted: Homo sapiens; 10 μM single dose; SK-MEL-28, Melanoma; read-out: Cell Growth inhibition Percent. An outline of the steps:
as §1

The subject of the next assay is UACC-257. To be noted: Homo sapiens; 10 μM single dose; UACC-257, Melanoma; read-out: Cell Growth inhibition Percent. In short, it runs like this: as §1

The inhibition is the relative decrease from the control value, in per cent.

On to `O=C1Nc2ccccc2C1=CNc1ccc(C(=O)O)cc1` [Compound 4c, 4-{[(2-Oxoindolin-3-ylidene)methyl]amino}benzoic acid], for which the inhibition at 10 µM worked out at 0.5% in the assay on HS 578T and 19.1% in the assay with TK-10.

Turning to `NS(=O)(=O)N/C=C1/C(=O)Nc2ccccc21` [Compound 5, 3-(sulfamidmethylene)indoline-2-one], the inhibition at 10 µM came out at 3.18% in the assay with NCI-H322M and 0.31% in the assay on SNB-19.

Take `NS(=O)(=O)c1ccc(NCc2ccc(NC=C3C(=O)Nc4ccccc43)cc2)cc1` [Compound 11a, 4-{[4-({[2-Oxoindolin-3-ylidene]methyl}amino)benzyl]amino}benzenesulfonamide]: in the assay with DU-145, the inhibition at 10 µM was 2.9%.

Regarding `O=C1Nc2ccccc2C1=CNc1ccc(CNc2ccc(S(=O)(=O)Nc3ncccn3)cc2)cc1` [Compound 11b, 4-{[4-({[2-Oxoindolin-3-ylidene]methyl}amino)benzyl]amino}-N-(pyrimidin-2-yl)benzenesulfonamide], the inhibition at 10 µM in the assay with CCRF-CEM turned out to be 25.4%.

`O=C1Nc2ccccc2C1=CNc1ccc(C(=O)C=CNc2nccs2)cc1` [Compound 13c, 3-{[(4-{3-[Thiazol-2-ylamino]acryloyl}phenyl)amino]methylene}indolin-2-one]: the inhibition at 10 µM in the assay on CCRF-CEM stood at 12.1%; in the assay with OVCAR-3 it was 3.91%.

In the case of `O=C(Nc1ccc(NC=C2C(=O)Nc3ccccc32)cc1)Nc1nccs1` [Compound 15c, 1-{4-[((2-Oxoindolin-3-ylidene)methyl)amino]phenyl}-3-(thiazol-2-yl)urea], the inhibition at 10 µM in the assay on DU-145 came to 59.5%; in the assay with HCC-2998, 26.1%; with HL-60(TB), 58%; in the assay with HS 578T, 68.5%; in the assay with NCI-H322M, 47.2%; in the assay with NCI/ADR-RES, 59.2%. Further, the inhibition at 10 µM with OVCAR-3 came out at 84.6%; in the assay with SK-MEL-28, 38.7%; in the assay on SNB-19, 69%; in the assay with TK-10 it was 24.3%; with UACC-257 it was 28.4%.
